Results taken from patent US20250170248A1, “SMARCA DEGRADERS AND USES THEREOF” (Kymera Therapeutics, Inc., priority 2021, published 2025).

How the values were obtained:
Format in all cases: cell-based
SMARCA4 = target: T1, SMARCA4 (Homo sapiens, UniProt P51532); experiment: SMARCA4 Western blot degradation in MV4-11 cells; conditions: for Dmax: MV4-11, MV4-11 cells, read-out: SMARCA4 MSD MV411 degradation 24 h: average Dmax %; for Dmax / DC50: 24 h; for DC50: read-out: SMARCA4 MSD MV411 degradation 24 h: Mean external-Abs DC50
T1 construct: SMARCA2/SMARCA4 protein degradation selectivity in MV4-11 cells; endogenous in cells; host or cells: MV4-11
T1 sequence (P51532 whole entry): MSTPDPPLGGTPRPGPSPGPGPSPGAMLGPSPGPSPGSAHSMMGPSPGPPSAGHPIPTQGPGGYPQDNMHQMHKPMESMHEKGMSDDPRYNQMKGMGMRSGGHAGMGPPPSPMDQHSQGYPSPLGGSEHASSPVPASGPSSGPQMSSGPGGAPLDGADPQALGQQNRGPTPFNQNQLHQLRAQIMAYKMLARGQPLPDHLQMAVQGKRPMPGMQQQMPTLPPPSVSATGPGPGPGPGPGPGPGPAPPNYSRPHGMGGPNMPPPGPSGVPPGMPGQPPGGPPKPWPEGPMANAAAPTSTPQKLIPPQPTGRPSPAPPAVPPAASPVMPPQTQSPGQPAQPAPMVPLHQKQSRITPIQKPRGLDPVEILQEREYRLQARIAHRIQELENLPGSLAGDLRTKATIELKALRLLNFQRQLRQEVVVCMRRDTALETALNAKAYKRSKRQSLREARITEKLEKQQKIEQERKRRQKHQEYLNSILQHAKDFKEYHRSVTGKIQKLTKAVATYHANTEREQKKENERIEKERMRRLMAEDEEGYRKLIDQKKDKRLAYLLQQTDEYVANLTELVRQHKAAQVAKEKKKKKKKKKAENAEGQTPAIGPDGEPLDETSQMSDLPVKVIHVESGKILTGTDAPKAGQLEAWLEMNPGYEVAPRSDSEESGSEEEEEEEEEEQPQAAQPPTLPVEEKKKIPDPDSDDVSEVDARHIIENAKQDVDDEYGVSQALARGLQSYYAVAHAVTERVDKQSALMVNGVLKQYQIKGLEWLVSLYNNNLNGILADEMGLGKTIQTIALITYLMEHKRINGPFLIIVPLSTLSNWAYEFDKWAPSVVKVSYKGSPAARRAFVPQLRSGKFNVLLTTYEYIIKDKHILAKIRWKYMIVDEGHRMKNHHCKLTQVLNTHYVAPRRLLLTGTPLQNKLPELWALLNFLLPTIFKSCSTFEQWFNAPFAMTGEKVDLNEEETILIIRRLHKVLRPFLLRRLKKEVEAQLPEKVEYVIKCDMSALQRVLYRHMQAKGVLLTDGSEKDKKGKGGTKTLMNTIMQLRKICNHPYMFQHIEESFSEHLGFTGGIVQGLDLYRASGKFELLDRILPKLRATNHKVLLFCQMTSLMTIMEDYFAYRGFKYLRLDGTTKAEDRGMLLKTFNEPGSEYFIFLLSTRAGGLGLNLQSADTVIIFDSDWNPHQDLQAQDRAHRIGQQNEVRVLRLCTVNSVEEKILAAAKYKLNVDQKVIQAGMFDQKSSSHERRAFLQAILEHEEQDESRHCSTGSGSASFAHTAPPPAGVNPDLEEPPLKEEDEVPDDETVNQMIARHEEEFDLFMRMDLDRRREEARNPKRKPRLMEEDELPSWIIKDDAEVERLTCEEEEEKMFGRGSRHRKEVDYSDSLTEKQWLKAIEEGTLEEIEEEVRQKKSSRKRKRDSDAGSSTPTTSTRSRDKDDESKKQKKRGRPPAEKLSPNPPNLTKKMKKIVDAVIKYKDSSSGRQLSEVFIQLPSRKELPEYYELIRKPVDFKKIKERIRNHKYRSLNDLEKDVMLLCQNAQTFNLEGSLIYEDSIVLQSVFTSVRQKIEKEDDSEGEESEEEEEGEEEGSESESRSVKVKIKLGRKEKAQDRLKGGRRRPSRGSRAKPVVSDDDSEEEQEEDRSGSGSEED
Method in brief: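 Protein levels quantified by LI-COR Western blot (beta-actin loading control) in RIPA lysates of MV4-11 cells after 24 h compound exposure. Degradation reported as DC50, Dmax % at 24 h and SMARCA2 vs SMARCA4 selectivity, each binned into letter codes.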

SMARCA2 [1] = target: T2, SMARCA2 (Homo sapiens, UniProt P51531); experiment: MSD SMARCA2 degradation in A549 cell line; conditions: for Dmax: A549, A549 cells; for Dmax / DC50: 24 h; for DC50: read-out: SMARCA2 MSD A549 degradation 24 h: Average external-Abs DC50
T2 sequence (P51531 whole entry): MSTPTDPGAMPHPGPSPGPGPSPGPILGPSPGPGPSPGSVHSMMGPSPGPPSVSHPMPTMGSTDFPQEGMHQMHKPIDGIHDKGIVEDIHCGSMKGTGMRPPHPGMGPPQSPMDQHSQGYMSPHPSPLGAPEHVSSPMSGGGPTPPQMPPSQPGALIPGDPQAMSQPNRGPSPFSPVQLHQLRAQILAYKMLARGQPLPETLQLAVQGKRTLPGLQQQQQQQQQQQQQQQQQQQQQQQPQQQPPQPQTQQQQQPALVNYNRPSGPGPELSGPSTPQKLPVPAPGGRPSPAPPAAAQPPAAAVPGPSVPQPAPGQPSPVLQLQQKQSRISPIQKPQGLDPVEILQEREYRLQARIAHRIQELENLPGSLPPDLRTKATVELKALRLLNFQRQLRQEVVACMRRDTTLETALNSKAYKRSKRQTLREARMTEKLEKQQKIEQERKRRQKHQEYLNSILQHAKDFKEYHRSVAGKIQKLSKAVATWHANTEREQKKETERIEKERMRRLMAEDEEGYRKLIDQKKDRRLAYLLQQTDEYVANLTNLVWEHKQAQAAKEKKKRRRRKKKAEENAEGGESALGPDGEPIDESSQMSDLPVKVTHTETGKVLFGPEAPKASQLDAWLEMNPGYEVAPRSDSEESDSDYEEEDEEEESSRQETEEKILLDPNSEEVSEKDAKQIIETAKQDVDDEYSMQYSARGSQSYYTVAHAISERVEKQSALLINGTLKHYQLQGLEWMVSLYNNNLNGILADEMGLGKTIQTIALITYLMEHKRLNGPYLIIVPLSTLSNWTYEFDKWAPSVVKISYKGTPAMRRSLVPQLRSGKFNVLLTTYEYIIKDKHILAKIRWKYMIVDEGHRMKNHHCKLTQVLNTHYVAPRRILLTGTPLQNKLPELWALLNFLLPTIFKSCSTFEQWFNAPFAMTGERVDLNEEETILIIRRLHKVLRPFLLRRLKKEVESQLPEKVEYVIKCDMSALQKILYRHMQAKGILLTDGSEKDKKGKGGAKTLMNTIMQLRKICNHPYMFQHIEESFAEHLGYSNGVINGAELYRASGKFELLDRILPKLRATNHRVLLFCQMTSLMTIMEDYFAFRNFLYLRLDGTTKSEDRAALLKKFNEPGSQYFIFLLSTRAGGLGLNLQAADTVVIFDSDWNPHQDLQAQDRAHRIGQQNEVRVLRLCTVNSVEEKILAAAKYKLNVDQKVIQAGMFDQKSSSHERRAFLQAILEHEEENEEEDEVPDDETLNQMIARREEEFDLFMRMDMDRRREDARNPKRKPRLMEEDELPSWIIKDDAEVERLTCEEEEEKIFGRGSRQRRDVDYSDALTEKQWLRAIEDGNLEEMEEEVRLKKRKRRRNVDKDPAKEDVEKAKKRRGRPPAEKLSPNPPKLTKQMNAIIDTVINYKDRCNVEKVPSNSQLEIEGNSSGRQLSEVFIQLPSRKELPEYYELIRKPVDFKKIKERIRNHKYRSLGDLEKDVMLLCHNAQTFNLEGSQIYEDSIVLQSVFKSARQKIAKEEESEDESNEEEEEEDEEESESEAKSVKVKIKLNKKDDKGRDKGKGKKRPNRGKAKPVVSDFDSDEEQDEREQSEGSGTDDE
Method in brief: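 SMARCA2 protein remaining after 24 h exposure of A549 cells (top concentration 1000 nM, 3-fold dilutions) was measured by MSD electrochemiluminescence immunoassay of cell lysates. Results are given as binned DC50 and maximal degradation (Dmax) codes.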

SMARCA2 [2] = target: T2, SMARCA2; experiment: SMARCA2 Western blot degradation in MV4-11 cells; parameters: SMARCA2/SMARCA4 protein degradation selectivity in MV4-11 cells; endogenous in cells; host or cells: MV4-11; conditions: for Dmax: MV4-11, MV4-11 cells, read-out: SMARCA2 MSD MV411 degradation 24 h: average Dmax %; for DC50: read-out: SMARCA2 MSD MV411 degradation 24 h: Mean external-Abs DC50; for Selectivity in MV411: SMARCA2/4 selectivity

SMILES	Dmax (SMARCA4) [%]	DC50 (SMARCA4; MV4-11 cells) [nM]	Dmax (SMARCA2 [1]) [%]	DC50 (SMARCA2 [1]; A549 cells) [nM]	Dmax (SMARCA2 [2]; 24 h) [%]	DC50 (SMARCA2 [2]; MV4-11 cells, 24 h) [nM]	Selectivity in MV411 (SMARCA2 [2]; MV4-11 cells)	SMARCA4 MSD MV411 degradation 24 h: average Dmax % (SMARCA4; MV4-11 cells)	SMARCA2 MSD A549 degradation 24 h: Average Dmax % (SMARCA2 [1]; A549 cells)	SMARCA2 MSD MV411 degradation 24 h: average Dmax % (SMARCA2 [2]; MV4-11 cells, 24 h)
Cc1ncsc1-c1ccc(CNC(=O)[C@@H]2C[C@@H](O)CN2C(=O)C(c2cc(OCCCCN3CCC(c4cnc(N5CCN6c7cc(-c8ccccc8O)nnc7NC[C@@H]6C5)nc4)CC3)no2)C(C)C)cc1 (stereo partly drawn) [I-51, (2S,4R)-4-hydroxy-1-(2-(3-(4-(4-(2-((R)-2-(2-hydroxyphenyl)-6a,7,9,10-tetrahydro-5H-pyrazino[1′,2′:4,5]pyrazino[2,3-c]pyridazin-8(6H)-yl)pyrimidin-5-yl)piperidin-1-yl)butoxy)isoxazol-5-yl)-3-methylbutanoyl)-N-(4-(4-methylthiazol-5-yl)benzyl)pyrrolidine-2-carboxamide]	> 90	1 to 10	70 to 90	10 to 50	> 90	< 1	D (D (<10 fold))			
C#Cc1ccc(CNC(=O)[C@@H]2C[C@@H](O)CN2C(=O)[C@@H](NC(=O)CCCN2CCC(N3CC4(CC(N5CCN6c7cc(-c8ccccc8O)nnc7NC[C@H]6C5)C4)C3)CC2)C(C)(C)C)cc1 (single isomer, unassigned) [I-244]	50 to 70	> 100	> 90	> 100	> 90	10 to 100	C (C (10-100 fold))			
C#Cc1ccc(CNC(=O)[C@@H]2C[C@@H](O)CN2C(=O)[C@@H](NC(=O)N2CC3(CC(N4CCC(c5cnc(N6CCc7[nH]c8nnc(-c9ccccc9O)cc8c7[C@@H]6C)nc5)CC4)C3)C2)C(C)(C)C)c(OCCCOC)c1 [I-227]	> 90	> 100	> 90	50 to 100	70 to 90	10 to 100	D (D (<10 fold))			
C#Cc1ccc(CNC(=O)[C@@H]2C[C@@H](O)CN2C(=O)[C@@H](NC(=O)N2CC3(CC(N4CCC(c5cnc(N6CCc7[nH]c8nnc(-c9ccccc9O)cc8c7[C@H]6C)nc5)CC4)C3)C2)C(C)(C)C)c(OCCCOC)c1 [I-128]	> 90	10 to 100	> 90	< 10	> 90	1 to 10	D (D (<10 fold))			
Cc1ncsc1-c1ccc(CNC(=O)[C@@H]2C[C@@H](O)CN2C(=O)[C@@H](NC(=O)[C@H]2CC3(CC[C@H](N4CCN(c5ccnc(N6CCc7[nH]c8nnc(-c9ccccc9O)cc8c7[C@H]6C)n5)CC4)CC3)C2)C(C)(C)C)cc1 (stereo partly drawn) [I-80]	> 90	1 to 10	> 90	< 10	> 90	< 1	C (C (10-100 fold))			
Cc1ncsc1-c1ccc(CNC(=O)[C@@H]2C[C@@H](O)CN2C(=O)[C@@H](NC(=O)[C@H]2CC3(C2)C[C@H](N2CCC(c4ccnc(N5CCN6c7cc(-c8ccccc8O)nnc7NC[C@H]6C5)n4)CC2)C3)C(C)(C)C)cc1 (single isomer, unassigned) [I-5]	< 50	> 100	> 90	10 to 50	> 90	1 to 10	A (A (>500 fold))			
C#Cc1ccc(CNC(=O)[C@@H]2C[C@@H](O)CN2C(=O)[C@@H](NC(=O)N2CCN(CC3CCN([C@H]4CC[C@H](N5CCc6[nH]c7nnc(-c8ccccc8O)cc7c6[C@H]5C)CC4)CC3)CC2)C(C)(C)C)cc1 [I-204]	< 50	> 100	70 to 90	> 100	< 50	> 100	C (C (10-100 fold))			
C#Cc1ccc(CNC(=O)[C@@H]2C[C@@H](O)CN2C(=O)[C@@H](NC(=O)N2CCN(C[C@H]3CC[C@@H](N4CCC(N5CCc6[nH]c7nnc(-c8ccccc8O)cc7c6[C@H]5C)CC4)CC3)CC2)C(C)(C)C)cc1 [I-193]	< 50	> 100	70 to 90	> 100	< 50	> 100	C (C (10-100 fold))			
C#Cc1ccc([C@H](C)NC(=O)[C@@H]2C[C@@H](O)CN2C(=O)[C@@H](NC(=O)N2CC3(CC(N4CCN(c5cnc(N6CCc7[nH]c8nnc(-c9ccccc9O)cc8c7[C@H]6C)nc5)CC4)C3)C2)C(C)(C)CCO)cc1 [I-369]	70 to 90	> 100	> 90	< 10	> 90	1 to 10	C (C (10-100 fold))			
C#Cc1cnc(CNC(=O)[C@@H]2C[C@@H](O)CN2C(=O)[C@@H](NC(=O)[C@H]2CCC3(CC2)C[C@H](N2CCC(c4cnc(N5CCN6c7cc(-c8ccccc8O)nnc7NC[C@H]6C5)nc4)CC2)C3)C(C)(C)C)c(OC)c1 (single isomer, unassigned) [I-298]		> 100		10 to 50		> 100	D (D (<10 fold))	D (D (<50% degradation))	B (B (>70-90% degradation))	D (D (<50% degradation))
Cc1ncsc1-c1ccc(CNC(=O)[C@@H]2C[C@@H](O)CN2C(=O)[C@@H](NC(=O)[C@H]2CCC3(CC2)C[C@H](N2CCC(c4ccc(N5CCN6c7cc(-c8ccccc8O)nnc7NC[C@H]6C5)nc4)CC2)C3)C(C)(C)C)cc1 (stereo partly drawn) [I-148]	< 50	> 100	> 90	50 to 100	70 to 90	10 to 100	B (B (>100-500 fold))			
C#Cc1ccc(CNC(=O)[C@@H]2C[C@@H](O)CN2C(=O)[C@@H](NC(=O)N2CC3(CN(CC4CCN(c5cnc(N6CCc7[nH]c8nnc(-c9ccccc9O)cc8c7[C@@H]6C)nc5)CC4)C3)C2)C(C)(C)C)cc1 [I-165]	70 to 90	> 100	> 90	> 100	70 to 90	10 to 100	D (D (<10 fold))			
C#Cc1ccc([C@H](C)NC(=O)[C@@H]2C[C@@H](O)CN2C(=O)[C@@H](NC(=O)[C@H]2CCC3(CC2)C[C@H](N2CCN(c4cnc(N5CCN6c7cc(-c8ccccc8O)nnc7NC[C@H]6C5)nc4)CC2)C3)C(C)(C)C)cc1 (single isomer, unassigned) [I-233]	50 to 70	> 100	> 90	10 to 50	70 to 90	1 to 10	C (C (10-100 fold))			
C#Cc1ccc(CNC(=O)[C@@H]2C[C@@H](O)CN2C(=O)[C@@H](NC(=O)[C@H]2CCC3(CC2)C[C@H](N2CCC(c4ccc(N5CCN6c7cc(-c8ccccc8O)nnc7NC[C@H]6C5)nc4)CC2)C3)C(C)(C)C)cc1 (single isomer, unassigned) [I-155]	< 50	> 100	> 90	10 to 50	70 to 90	1 to 10	A (A (>500 fold))			
Cc1ncsc1-c1ccc(CNC(=O)[C@@H]2C[C@@H](O)CN2C(=O)[C@@H](NC(=O)[C@H]2CC3(CC[C@H](N4CCN(c5cnc(N6CCc7[nH]c8nnc(-c9ccccc9O)cc8c7[C@H]6C)nc5)CC4)CC3)C2)C(C)(C)C)cc1 (single isomer, unassigned) [I-78]	< 50	> 100	> 90	10 to 50	70 to 90	10 to 100	B (B (>100-500 fold))			
